From US5574059A, “Treating disorders mediated by vascular smooth muscle cell proliferation” (priority 1995, dated 1996) come the findings set out here.

Experiment [1] can be described thus: Example IV: patient with fibromuscular dysplasia of the renal artery, angioplasty. It counts as in vivo, human.
For experiment [2], the system named is human coronary artery smooth muscle cells. As to the kind of experiment: 3H-thymidine incorporation in normal human coronary artery smooth muscle cells. It counts as cell-based. On the procedure: In this experiment the antiproliferative action of idazoxan was tested in normal human coronary artery smooth muscle cells (Clonetics Corp.). Proliferation of smooth muscle cells was measured as described above by the incorporation of ^3 H-thymidine into cellular DNA. Following the incubation of semi-confluent smooth muscle cells in serum-free medium for 24 hr, growth is stimulated by either 5% fetal calf serum (FCS) or platelet derived growth factor (PDGF) (10 ng/well) in the presence and absence of various concentrations of idazoxan. […] In Table 4, "DPM" stands for disintegrations per minute which is a measure of the radioactivity incorporated into the cellular DNA by 3H-thymidine.

A short description of experiment [3]: Example III: patient with coronary artery disease, angioplasty. In kind it is in vivo, human. On the procedure:
A person presents with the onset of chest pain on exertion. […] Ten days before angioplasty, the patient is begun on 75 or 100 mg/day of idazoxan. […] Treatment with 50 mg/day idazoxan is continued for 3 months.

Experiment [4] can be described thus: Example V: patient with Type I diabetes mellitus, overgrowth of retinal vessels. It counts as in vivo, human. Conditions: idazoxan 75 mg/day; UK 14,304 60, naphazoline 125, cirazoline 60, agmatine 900 mg/day. The text has this: A person with Type I diabetes mellitus and maintained on insulin presents with progressive symptoms of loss of visual acuity bilaterally with evidence on opthalmascopic examination of overgrowth of retinal vessels and hemorrhages.

In experiment [5] the test system is I2 imidazoline receptors. As to the kind of experiment: inhibition of 3H-idazoxan (5 nM) binding to rat aortic smooth muscle cell membranes. To be noted: 3H-idazoxan 5 nM. On the procedure: Binding to I2 imidazoline receptors is determined by the following assay. Membranes are prepared from cultured cells for ligand binding as described in Regunathan, S., et al, Biochem. Pharmacol. 45, 1667-1675 (1993) and Regunathan, S., et al, J. Neurosci. Res. 34, 681-688 (1993) and the disclosure in these on this is incorporated herein by reference. In particular, harvested rat aortic smooth muscle cells are homogenized in Hepes-sucrose buffer (pH 7.4) with a Teflon-glass homogenizer and centrifuged at 1000 × g for 10 minutes. The pellets are suspended in ice-cold Tris-HCl buffer (pH 7.7) with 5mM ethylene diamine tetracetic acid and homogenized using a Polytron (Brinkman Instruments) for 10 seconds. The homogenate is centrifuged at 40,000 × g for 30 minutes to produce a membrane pellet. The membrane pellet is washed three times by resuspending in buffer and re-centrifuging. The washed pellet is suspended in fresh Tris-HCl buffer (pH 7.4) to provide approximately 100 μg protein per assay tube. Binding assays are performed in Tris-HCl buffer (pH 7.7) using 5 nM of […]. Non-specific binding is defined by 100 μM of unlabelled idazoxan which will inhibit the specific binding of ^3 H-idazoxan. Thus the binding remaining in the presence 100 μM of idazoxan is due to non-specific binding and this will be substracted from total binding to calculate the specific binding. Following incubation at 25° C. for 30 minutes, reaction is terminated by rapid vacuum filtration over Whatman GF/B filters and washed with 10 ml of ice-cold buffer. Filters are suspended in scintillation fluid and radioactivity counted in a liquid scintillation counter. Membrane protein is assayed by Coomassie Blue method (Pierce) using bovine serum albumin as standard.
Determination of inhibition constant (Ki) for each drug is determined as follows: The binding of ^3 H-idazoxan to membranes of vascular smooth muscle cells is determined in the presence of 0.1 nM to 100 μM concentrations of potential drug. The percent inhibition of specific binding of ^3 H-idazoxan by each concentration is calculated and plotted against concentration. The data is analyzed by non-linear curve fitting program, LIGAND and the IC50 value for each potential drug is calculated. The affinity for each drug (Ki) for I2 imidazoline receptors is calculated using the formula Ki =IC50 /1+L/Kd where L is the concentration of ^3 H-idazoxan used for binding and Kd is the dissociation constant for ^3 H-idazoxan for I2 imidazoline receptors. The dissociation constant (Kd) is determined by Scatchard analysis of the saturation binding of ^3 H-idazoxan using the formula [formula] where B and F are the amount of bound and free ligand, respectively, and Bmax is the number of binding sites.
Primary cultures of rat-aortic smooth muscle cells were prepared by a modification (described in Erlinge, Do, et al, Am. J. Physiol. 265, H1089-1097, 1993) of the method of Meyer-Lehnert and Schrier (Meyer-Lehnert, H., et al, Hypertension 13,350-361, 1989), the disclosure of these cited articles being incorporated herein by reference. Briefly, rats were killed by anesthetic overdose and the aorta were removed and incubated with collagenase (2 mg/ml) in Dulbecco's modified Eagle's minimum essential medium (DMEM). The vessel was stripped of adventitia, cut longitudinally and the intima scraped away. After further collagenase treatment, the remaining tissue was passed 20 times through 18 and 16 gauge needles. The resulting cell suspension was centrifuged at 500 × g for 5 minutes and resuspended in DMEM containing penicillin (100 units/ml), streptomycin (100 μg/ml), 2 mM L-glutamine and 10% fetal calf serum. The suspended cells were plated in T-75 flasks, cultured until confluent, and subcultured in 100 mm plates. The confluent cells were harvested and membranes were prepared. Cell viability was determined by trypan blue exclusion.

A short description of experiment [6]: Example I: patient with intermittent claudication, iliac artery plaques. It counts as in vivo, human. Conditions: over 30 days oral; idazoxan 50 and 75 mg/day, UK 14,304 125, naphazoline 125, cirazoline 75, agmatine 900 mg/day. The source says:
A person presents with progressive symptoms of intermittent claudication in both legs.

Experiment [7] in a line: Example II: patient with narrowing of right common carotid artery, balloon angiography. In kind it is in vivo, human. To be noted: idazoxan 50 or 75 mg/day two weeks before and 3 months after balloon angiography; UK 14,304 125, cirazoline 60, naphazoline 125, agmatine 900 mg/day. The protocol:
A person presents with a history of intermittent brief episodes of transient monocular blindness in the right eye associated with clumsiness and weakness of the left arm and leg. Angiography indicates substantial narrowing of the right common carotid artery. They are with treated with idazoxan at a dosage of 50 or 75 mg/day for two weeks preceding balloon angiography and for 3 months thereafter.

Like-named read-outs stand apart in the source and are kept apart here.

With `c1ccc2c(c1)OCC(C1=NCCN1)O2` (stereo not shown) [Idazoxan, 2-[2-(1,4-benzodioxanyl)]-2-imidazoline], the blood pressure result in experiment [1] (idazoxan 75 mg/day for 1 month followed by angioplasty with continued treatment) is “rapid fall of blood pressure to normal”. Besides, the “re-elevation of pressure / restenosis of the renal artery” value in experiment [1] (idazoxan 75 mg/day, UK 14,304 60, naphazoline 125, cirazoline 60, agmatine 900 mg/day) is listed as “without evidence months later on re-elevation of pressure or on follow up, of restenosis of the renal artery”. In addition, the 3H-thymidine incorporated was determined as 5540 ± 430 DPM/well in experiment [2] (FCS (5%) + idazoxan 1 μM); 2370 ± 230 DPM/well in experiment [2] (FCS (5%) + idazoxan 10 μM); 430 ± 98 DPM/well in experiment [2] (FCS (5%) + idazoxan 100 μM); 3220 ± 180 DPM/well in experiment [2] (PDGF (10 ng/well) + idazoxan 1 μM); 1890 ± 210 DPM/well in experiment [2] (PDGF (10 ng/well) + idazoxan 10 μM); 340 ± 60 DPM/well in experiment [2] (PDGF (10 ng/well) + idazoxan 100 μM). Besides, in experiment [2] (stimulated by FCS or PDGF), the “incorporation of 3H-thymidine, in words” value is reported as “inhibited the incorporation of ^3 H-thymidine”. Further, in experiment [3] (idazoxan 50 mg/day continued for 3 months, substitutes, dose not stated), the “symptoms / restenosis after angioplasty” value was “remains symptomless without evidence of restenosis”. The chest pain entry in experiment [3] (idazoxan 75 or 100 mg/day from ten days before angioplasty) is reported as “no further chest pain”. Moreover, the “progression and visual symptoms” value in experiment [4] is “arrest of the progression and some regression of the visual symptoms”. In addition, the Ki is ~10 nM in experiment [5] ("about", read-out: Ki, inhibition of 3H-idazoxan binding) and 8.5 ± 0.35 nM in experiment [5] (Table 2, rat aortic smooth muscle cell membranes, read-out: Ki). Further, the “symptoms of intermittent claudication” value in experiment [6] is on record as “stabilization of symptoms”. In experiment [7], the “symptoms and restenosis of the vessel” value was “Symptoms disappear without evidence of restenosis of the vessel”.
